In PMC9029089, “1,5-Disubstituted Acylated 2-Amino-4,5-dihydroimidazoles as a New Class of Retinoic Acid Receptor–Related Orphan Receptor (ROR) Inhibitors” (International Journal of Molecular Sciences, 2022):

The compounds below were run against T1, RORγ (Mus musculus, UniProt P51450) (assay: Gal4-RORγ-LBD UAS-luciferase reporter assay in TRex-CHO-K1 cells (doxycycline-stimulated)). Conditions: T-REx-CHO-K1; individual controls 1295.201-307, 5 μg/ml, triplicate; read-out: % Inhibition RORγ 5 μg/ml.
T1 construct: mRORγ (Pro-261-end); expressed in transfected cells
T1 sequence (P51450 261-516 limits assumed): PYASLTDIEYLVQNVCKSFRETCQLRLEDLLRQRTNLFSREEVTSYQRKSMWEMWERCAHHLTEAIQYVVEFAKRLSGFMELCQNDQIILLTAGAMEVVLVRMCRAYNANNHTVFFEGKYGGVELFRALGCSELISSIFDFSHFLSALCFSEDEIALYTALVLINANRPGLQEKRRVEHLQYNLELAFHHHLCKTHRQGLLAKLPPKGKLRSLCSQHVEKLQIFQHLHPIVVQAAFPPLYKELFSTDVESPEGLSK
Assay type: cell-based
Excerpt: (§1) The Gal4-DBD-ROR-LBD fusion proteins were subcloned in the pcDNA4/TO expression vector (Thermo Scientific) and transfected into TRex-CHO-K1 cells (Thermo Scientific) for tetracycline-controlled expression of the corresponding ROR proteins. Transfected cells were selected with hygromycin and Zeocin and individual clones for each of the Gal4-RORγ, Gal4-RORα, and Gal4-RORβ cell lines were isolated using a standard serial dilution protocol. Clones with the highest doxycycline-dependent stimulation of luciferase activity were selected for all functional experiments.
(§2) For screening FIU libraries, cells were resuspended in Ham’s F-12 assay medium containing 2% charcoal-treated FBS and no selection drugs. […] Cells were allowed to attach for 2 h, followed by compound treatment and stimulation with 20 ng/mL doxycycline for an additional 16–20 h. Appropriate solvent controls, negative controls with no doxycycline, and blanks with no cells were included in every plate. Prior to measuring luciferase activity, 6 µL of 0.15 mg/mL resazurin (Cayman Chemical) in PBS were added and cells were incubated for 1 h at 37 °C. Fluorescence intensity was detected at 545 nm excitation/590 nm emission using a CLARIOstar reader (BMGLabtech) as a measure of cell viability, to identify any potential cytotoxic effect of test compounds and mixtures.
(§3) Luminescence was normalized by the fluorescence intensity and the percentage of inhibition was calculated with respect to control cells stimulated with doxycycline in the presence of solvent control (0.1% DMF). All primary screens with individual compounds were performed in triplicate with a final concentration of 5 µg/mL. […] IC50 values were calculated using GraphPrism (GraphPad software).

inhibition at 5 µg/mL [%] | SMILES
83.1 | O=C(CCc1ccccc1)NC1=NC[C@H](Cc2ccccc2)N1CCc1ccccc1 [1295.289]
96 | O=C(NC1=NC[C@H](Cc2ccccc2)N1CCc1ccccc1)C1(c2ccccc2)CC1 [1295.272]
91.5 | O=C(Cc1ccccc1)NC1=NC[C@H](Cc2ccccc2)N1CCc1ccc(-c2ccccc2)cc1 [1295.248]
94.7 | CC(C)(C)C(=O)NC1=NC[C@H](Cc2ccccc2)N1CCc1ccccc1 [1295.298]
82.8 | O=C(CCCC1CCCCC1)NC1=NC[C@H](Cc2ccccc2)N1CCc1ccccc1 [1295.300]

Same assay, conditions: from IC50 values in reporter cells

selectivity towards RORγ over RORα and RORβ | SMILES
two-fold selectivity | O=C(Cc1ccccc1)NC1=NC[C@H](Cc2ccccc2)N1CCc1ccc(-c2ccccc2)cc1 [1295.248]

Same assay, conditions: individual controls of library 1295, second confirmatory dose response, Figure 2

IC50 [µM] | SMILES
7 ± 2.3 | O=C(CCc1ccccc1)NC1=NC[C@H](Cc2ccccc2)N1CCc1ccccc1 [1295.289]
8 ± 1 | O=C(NC1=NC[C@H](Cc2ccccc2)N1CCc1ccccc1)C1(c2ccccc2)CC1 [1295.272]
5 | O=C(Cc1ccccc1)NC1=NC[C@H](Cc2ccccc2)N1CCc1ccc(-c2ccccc2)cc1 [1295.248]
10 ± 1.5 | CC(C)(C)C(=O)NC1=NC[C@H](Cc2ccccc2)N1CCc1ccccc1 [1295.298]
8.7 ± 2 | O=C(CCCC1CCCCC1)NC1=NC[C@H](Cc2ccccc2)N1CCc1ccccc1 [1295.300]

Same assay, conditions: read-out: IC50 (μM, N=4) ROR-Gamma; library 2520

IC50 [µM] | SMILES
5.31 ± 0.2 | CCOc1ccc(CC2CN=C(NC(=O)Cc3ccc(OC)cc3)N2CCC(C)c2ccccc2)cc1 (mixture of isomers) [2520.46]
4.69 ± 0.2 | CCC(C(=O)NC1=NCC(C(C)CC)N1CC1CCCCC1)c1ccccc1 (mixture of isomers) [2520.15]
9.27 ± 0.4 | CCOc1ccc(C[C@H]2CN=C(NC(=O)C(C)C)N2CC2CCCCC2)cc1 [2520.48]
4.8 ± 0.2 | CCC(C(=O)NC1=NCC(Cc2ccccc2)N1CC1CCCCC1)c1ccccc1 (mixture of isomers) [2520.27]
5.17 ± 0.8 | CCOc1ccc(C[C@H]2CN=C(NC(=O)Cc3ccc(OC)cc3)N2CC2CCCCC2)cc1 [2520.42]
6.37 ± 0.4 | CC(C)C(=O)NC1=NCC(Cc2ccccc2)N1CCC(C)c1ccccc1 (mixture of isomers) [2520.28]
7.55 ± 0.5 | CCC(C(=O)NC1=NCC(Cc2ccc3ccccc3c2)N1CCC1CC2CCC1C2)c1ccccc1 (mixture of isomers) [2520.11]

What follows are compounds tested against T2, RORα (Homo sapiens, UniProt P35398) (assay: Gal4-RORα-LBD UAS-luciferase reporter assay in TRex-CHO-K1 cells (doxycycline-stimulated)). Conditions: IC50 (μM) (N=4) RORα, individual controls of library 1295, second confirmatory dose response, Figure 2.
T2 construct: hRORα (Pro-211-end); expressed in transfected cells
T2 sequence (P35398 266-523): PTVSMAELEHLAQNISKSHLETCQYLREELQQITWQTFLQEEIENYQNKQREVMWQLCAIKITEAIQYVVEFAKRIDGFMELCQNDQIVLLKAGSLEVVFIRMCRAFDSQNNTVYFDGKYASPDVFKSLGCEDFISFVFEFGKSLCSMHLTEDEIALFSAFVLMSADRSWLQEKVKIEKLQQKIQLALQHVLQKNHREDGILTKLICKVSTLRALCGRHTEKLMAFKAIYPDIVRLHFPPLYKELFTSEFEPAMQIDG
Assay type: cell-based
Excerpt: as §1, §2, §3

IC50 [µM] | SMILES
12.7 ± 0.4 | O=C(CCc1ccccc1)NC1=NC[C@H](Cc2ccccc2)N1CCc1ccccc1 [1295.289]
10.1 | O=C(Cc1ccccc1)NC1=NC[C@H](Cc2ccccc2)N1CCc1ccc(-c2ccccc2)cc1 [1295.248]
10.2 ± 0.4 | O=C(CCCC1CCCCC1)NC1=NC[C@H](Cc2ccccc2)N1CCc1ccccc1 [1295.300]

Same assay, conditions: individual controls of library 1295, second confirmatory dose response, Figure 2

IC50 [µM] | SMILES
9.8 ± 0.5 | O=C(NC1=NC[C@H](Cc2ccccc2)N1CCc1ccccc1)C1(c2ccccc2)CC1 [1295.272]
9.6 ± 0.3 | CC(C)(C)C(=O)NC1=NC[C@H](Cc2ccccc2)N1CCc1ccccc1 [1295.298]

Same assay, conditions: read-out: IC50 (μM, N=4) ROR-Alpha; library 2520

IC50 [µM] | SMILES
5.82 ± 0.3 | CCOc1ccc(CC2CN=C(NC(=O)Cc3ccc(OC)cc3)N2CCC(C)c2ccccc2)cc1 (mixture of isomers) [2520.46]
5.97 ± 0.2 | CCC(C(=O)NC1=NCC(C(C)CC)N1CC1CCCCC1)c1ccccc1 (mixture of isomers) [2520.15]
9.61 ± 0.5 | CCOc1ccc(C[C@H]2CN=C(NC(=O)C(C)C)N2CC2CCCCC2)cc1 [2520.48]
6.61 ± 0.3 | CCC(C(=O)NC1=NCC(Cc2ccccc2)N1CC1CCCCC1)c1ccccc1 (mixture of isomers) [2520.27]
5.4 ± 0.4 | CCOc1ccc(C[C@H]2CN=C(NC(=O)Cc3ccc(OC)cc3)N2CC2CCCCC2)cc1 [2520.42]
8.48 ± 0.4 | CC(C)C(=O)NC1=NCC(Cc2ccccc2)N1CCC(C)c1ccccc1 (mixture of isomers) [2520.28]
10.3 ± 0.4 | CCC(C(=O)NC1=NCC(Cc2ccc3ccccc3c2)N1CCC1CC2CCC1C2)c1ccccc1 (mixture of isomers) [2520.11]

These compounds were tested against T3, RORβ (Rattus norvegicus, UniProt P45446) (assay: Gal4-RORβ-LBD UAS-luciferase reporter assay in TRex-CHO-K1 cells (doxycycline-stimulated)). Conditions: IC50 (μM) (N=4) RORβ, individual controls of library 1295, second confirmatory dose response, Figure 2.
T3 construct: rRORβ (Pro 205-end); expressed in transfected cells
T3 sequence (P45446 205-459 isoform P45446-1): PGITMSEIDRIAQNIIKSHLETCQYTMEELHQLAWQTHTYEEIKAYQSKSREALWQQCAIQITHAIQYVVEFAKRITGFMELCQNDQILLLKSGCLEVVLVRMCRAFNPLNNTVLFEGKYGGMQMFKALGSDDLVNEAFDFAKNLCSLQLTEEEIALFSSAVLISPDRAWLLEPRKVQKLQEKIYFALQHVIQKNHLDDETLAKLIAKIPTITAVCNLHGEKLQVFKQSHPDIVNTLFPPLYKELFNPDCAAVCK
Assay type: cell-based
Excerpt: To investigate the transcriptional activity of all three RORs, we generated stable cell lines expressing an UAS-driven luciferase reporter together with the corresponding Gal4-DNA binding domain fused to the ligand binding domains (LBDs) of mRORγ (Pro-261-end), hRORα (Pro-211-end), or rRORβ (Pro 205-end). The Gal4-DBD-ROR-LBD fusion proteins were subcloned in the pcDNA4/TO expression vector (Thermo Scientific) and transfected into TRex-CHO-K1 cells (Thermo Scientific) for tetracycline-controlled expression of the corresponding ROR proteins. Transfected cells were selected with hygromycin and Zeocin and individual clones for each of the Gal4-RORγ, Gal4-RORα, and Gal4-RORβ cell lines were isolated using a standard serial dilution protocol. Clones with the highest doxycycline-dependent stimulation of luciferase activity were selected for all functional experiments. All cell lines were maintained in complete Ham’s F12 medium containing 10% fetal bovine serum (FBS), 10 µg/mL blasticidine, 100 µg/mL hygromycin, and 100 µg/mL Zeocin and were used within 2 months of culture without any loss of doxycycline-dependent stimulation of luciferase activity.
For screening FIU libraries, cells were resuspended in Ham’s F-12 assay medium containing 2% charcoal-treated FBS and no selection drugs. Ten thousand cells per well were seeded in 30 µL of assay medium in 384 white plates with clear bottom (Greiner). Cells were allowed to attach for 2 h, followed by compound treatment and stimulation with 20 ng/mL doxycycline for an additional 16–20 h. Appropriate solvent controls, negative controls with no doxycycline, and blanks with no cells were included in every plate. Prior to measuring luciferase activity, 6 µL of 0.15 mg/mL resazurin (Cayman Chemical) in PBS were added and cells were incubated for 1 h at 37 °C. Fluorescence intensity was detected at 545 nm excitation/590 nm emission using a CLARIOstar reader (BMGLabtech) as a measure of cell viability, to identify any potential cytotoxic effect of test compounds and mixtures. Following the resazurin assay, the medium was removed and 20 µL of BriteLite-Plus luciferase reagent (Perking Elmer) were added; luminescence was measured in a CLARIOstar reader using a 384 aperture spoon and a 0.1 sec measuring time interval.
as §3

IC50 [µM] | SMILES
12.8 ± 2.7 | O=C(CCc1ccccc1)NC1=NC[C@H](Cc2ccccc2)N1CCc1ccccc1 [1295.289]
14.2 ± 3.6 | O=C(NC1=NC[C@H](Cc2ccccc2)N1CCc1ccccc1)C1(c2ccccc2)CC1 [1295.272]
12.1 | O=C(Cc1ccccc1)NC1=NC[C@H](Cc2ccccc2)N1CCc1ccc(-c2ccccc2)cc1 [1295.248]
10.8 ± 0.4 | CC(C)(C)C(=O)NC1=NC[C@H](Cc2ccccc2)N1CCc1ccccc1 [1295.298]
12.3 ± 0.8 | O=C(CCCC1CCCCC1)NC1=NC[C@H](Cc2ccccc2)N1CCc1ccccc1 [1295.300]

Same assay, conditions: read-out: IC50 (μM, N=4) ROR-Beta; library 2520

IC50 [µM] | SMILES
5.46 ± 0.3 | CCOc1ccc(CC2CN=C(NC(=O)Cc3ccc(OC)cc3)N2CCC(C)c2ccccc2)cc1 (mixture of isomers) [2520.46]
3.66 ± 0.3 | CCC(C(=O)NC1=NCC(C(C)CC)N1CC1CCCCC1)c1ccccc1 (mixture of isomers) [2520.15]
6.57 ± 0.5 | CCOc1ccc(C[C@H]2CN=C(NC(=O)C(C)C)N2CC2CCCCC2)cc1 [2520.48]
4.89 ± 0.3 | CCC(C(=O)NC1=NCC(Cc2ccccc2)N1CC1CCCCC1)c1ccccc1 (mixture of isomers) [2520.27]
5.21 ± 0.3 | CCOc1ccc(C[C@H]2CN=C(NC(=O)Cc3ccc(OC)cc3)N2CC2CCCCC2)cc1 [2520.42]
6.17 ± 0.3 | CC(C)C(=O)NC1=NCC(Cc2ccccc2)N1CCC(C)c1ccccc1 (mixture of isomers) [2520.28]
7.3 ± 0.8 | CCC(C(=O)NC1=NCC(Cc2ccc3ccccc3c2)N1CCC1CC2CCC1C2)c1ccccc1 (mixture of isomers) [2520.11]

What follows are compounds tested against T1, RORγ (assay: Gal4-RORγ-LBD UAS-luciferase reporter assay in TRex-CHO-K1 cells (doxycycline-stimulated)). Conditions: library 2520, RORγ cells.
Assay type: cell-based

% Inhibition at 4 μM (N=3) [%] | SMILES
67.3 | CCOc1ccc(CC2CN=C(NC(=O)Cc3ccc(OC)cc3)N2CCC(C)c2ccccc2)cc1 (mixture of isomers) [2520.46]
43.6 | CCC(C(=O)NC1=NCC(C(C)CC)N1CC1CCCCC1)c1ccccc1 (mixture of isomers) [2520.15]
69.2 | CCOc1ccc(C[C@H]2CN=C(NC(=O)C(C)C)N2CC2CCCCC2)cc1 [2520.48]
97.7 | CCC(C(=O)NC1=NCC(Cc2ccccc2)N1CC1CCCCC1)c1ccccc1 (mixture of isomers) [2520.27]
96.5 | CCOc1ccc(C[C@H]2CN=C(NC(=O)Cc3ccc(OC)cc3)N2CC2CCCCC2)cc1 [2520.42]
69.8 | CC(C)C(=O)NC1=NCC(Cc2ccccc2)N1CCC(C)c1ccccc1 (mixture of isomers) [2520.28]
67.6 | CCC(C(=O)NC1=NCC(Cc2ccc3ccccc3c2)N1CCC1CC2CCC1C2)c1ccccc1 (mixture of isomers) [2520.11]
